Source: patent publication US10662193B2, “Carbazole and carboline compounds for use in the diagnosis, treatment, alleviation or prevention of disorders associated with amyloid or amyloid-like proteins” (AC IMMUNE SA, priority 2014, dated 2020)

Assays:
AD brain-enriched PHF = AD brain-enriched PHF (Homo sapiens, UniProt P10636); experiment: Assay 2 (filter trap): [3H]RefA radio-binding competition assay and Ki on PHF; conditions: [^3H]RefA 10 nM; for inhibition at 2.5 µM: compound 2.5 μM, no Ki determined; for Ki: PHF diluted 1/80, compound 0.12 nM to 50 μM
Sequence of AD brain-enriched PHF (P10636 623-708 limits assumed): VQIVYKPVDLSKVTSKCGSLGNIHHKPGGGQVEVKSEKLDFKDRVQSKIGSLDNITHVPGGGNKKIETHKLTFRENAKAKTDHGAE
Method: Displacement of [^3H]RefA by Compounds of this Invention
50 g of frontal lobe tissue from post-mortem brain of an Alzheimer's disease (AD) patient were obtained from the London Tissue Bank. The patient was a […] and died […]. The brain sample was collected 5 hours post-mortem and characterized for Braak disease stage (Braak, H.; Braak, E. Acta Neuropathol., 1991, 82, 239-259) as stage VI. For the enrichment of PHF's, around 15 g of the AD human brain was thawed on ice and homogenized with 50 ml of homogenization buffer [0.75 M NaCl in RAB buffer (100 mM 2-(N-morpholino) ethanesulfonic acid (MES), 1 mM EGTA, 0.5 mM MgSO4, 2 mM DTT, pH 6.8) supplemented with protease inhibitors (Complete; Roche 11697498001) in a glass Dounce homogenizer. The homogenate was then incubated at 4° C. for 20 min to let any residual microtubules depolymerize, before the homogenate was transferred into polycarbonate centrifuge bottles (16×76 mm; Beckman 355603) and centrifuged at 11,000 g (12,700 RPM) in an ultracentrifuge (Beckman, XL100K) for 20 min at 4° C. using the pre-cooled 70.1 rotor (Beckman, 342184). Pellets were kept on ice. Supernatants were pooled into polycarbonate bottles and centrifuged again at 100,000 g (38,000 RPM) for 1 h at 4° C. in the 70.1 Ti rotor to isolate PHF-rich pellets, whereas soluble tau remained in the supernatants. The pellets from the first and second centrifugations were re-suspended in 120 mL of extraction buffer [10 mM Tris-HCl pH 7.4, 10% sucrose, 0.85 M NaCl, 1% protease inhibitor (Calbiochem 539131), 1 mM EGTA, 1% phosphatase inhibitor (Sigma P5726 and P0044)]. The solution was then transferred into polycarbonate centrifuge bottles (16×76 mm; Beckman 355603) and centrifuged at 15,000 g (14,800 RPM) in an ultracentrifuge (Beckman, XL100K) for 20 min at 4° C. using the 70.1 Ti rotor. In the presence of 10% sucrose and at low speed centrifugation, most PHF remained in the supernatant whereas intact or fragmented NFTs and larger PHF aggregates were pelleted. The pellets were discarded. 20% Sarkosyl (Sigma L7414-10ML) was added to the supernatants to a final concentration of 1% and stirred at room temperature for 1 h. This solution was then centrifuged into polycarbonate bottles at 100,000 g (38,000 RPM) for 1 h at 4° C. in the 70.1 Ti rotor, and the pellets containing PHF-rich material were re-suspended in a total final volume of 1.5 mL of PBS, aliquoted and stored at −80° C.
[^3H]RefA Radio-Binding Competition Assay
AD brain-enriched PHF diluted 1/80 were incubated in the presence of [^3H]RefA at 10 nM and the example compounds of this invention at 2.5 μM (250× excess), for 45 minutes at 37° C. Samples were then analyzed by on GF/B filter plates as described above (in the section “[^3H]RefA radio-binding assay and determination of the dissociation constant (Kd)). Non-specific signal was determined again with an excess of un-labeled RefA and specific binding calculated by subtracting the non-specific signal from the total signal. Competition was calculated as percent, where 0% was defined as the specific binding in the presence of vehicle (2.8% DMSO in PBS) and 100% as the values obtained in the presence of excess cold RefA. Similar assays were performed to determine the competition of the cold compounds on [^3H]RefA on in vitro aggregated recombinant human tau or Abeta1-42 For both recombinant proteins, 20 μg/mL of aggregates were incubated with 10 nM of [^3H]RefA for recombinant human tau or 80 nM of [^3H]RefA for recombinant human Abeta1-42.
Determination of the Binding Affinity (Ki)
Samples were then analyzed on GF/B filter plates as described above and Ki values calculated using Prism V5 (GraphPad).

[1] = test system: tau tangles/Aβ plaques on AD brain sections; experiment: Assay 1: direct staining of human Alzheimer's disease brain sections (fluorescence); assay type: binding; design: key to Direct staining of tau tangles/Aβ plaques on AD brain sections at 100 μM / Direct staining of tau tangles on AD brain sections at 100 μM / Direct staining of Aβ plaques on AD brain sections at 100 μM / Direct staining of tau tangles on AD brain sections (footnote a: at 250 μM): − (No); +++ (strong); ++ (good); + (weak); conditions: for Direct staining of tau tangles on AD brain sections at 100 μM / Direct staining of tau tangles/Aβ plaques on AD brain sections at 100 μM: 100 μM compound; for Direct staining of tau tangles/Aβ plaques on AD brain sections at 100 μM: human AD brain sections, fluorescence, cell does not say tangles or plaques
Method: Assay 1 (Fluorescence Based Assay):
(§1) Direct Binding of Compounds of this Invention to Human Alzheimer's Disease Brain Sections and/or Displacement of RefA and Compound B
(§2) Frozen sections with a thickness of […] from the amygdala of donors diagnosed with Braak stage V-VI Alzheimer's Disease (Braak, H.; Braak, E. Acta Neuropathol., 1991, 82, 239-259), were purchased from a commercial provider (Tissue Solutions) and kept at −80° C. until use.
Direct Staining of Human Alzheimer's Disease Brain Sections
Brain sections were encircled with pap pen liquid blocker to reduce the volume of solution for the different incubations. Sections were fixed for 15 min at 4° C. with 4% paraformaldehyde and washed three times 5 minutes with PBS at room temperature. […] To reduce the auto-fluorescence of the tissue, the sections were incubated in a solution of 0.1% Sudan Black (Sigma 199664) in 70% ethanol for 15 min at room temperature in the dark, washed four times for 5 minutes with PBS, and mounted using ProLong Gold Antifade reagent (Invitrogen P36930). Sections were then analyzed on the Nikon Eclipse Ti microscope to detect staining and imaged using Nikon DS-Fi2 camera and NIS-Element AR4.13.1 software.

[2] = test system: tau tangles on AD brain section; experiment: Assay 1: displacement of RefA on human AD brain sections (fluorescence); assay type: binding; conditions: for Selectivity (tau/Abeta): ratio of competition on tau tangles to competition on Aβ plaques
Method: as §1, §2
Displacement of RefA and Compound B
Brain sections were mainly treated as described above. Test compounds were, however, incubated on the section at 250 μM in 50% ethanol for 20 min at room temperature, and then directly incubated with the fluorescent reference compounds RefA and Compound B, each at 1 μM in 50% ethanol for 20 min at room temperature. RefA and Compound B stainings were visualized using the 470 nm and 365 nm excitation filters, respectively. Images were acquired, and tangles and plaques quantified using the NIS-Element software. Only those compounds not directly staining tangles or plaques at the same wavelengths as RefA and Compound B were tested in the displacement assay.
Structure of RefA (Tago et al., J. Label. Compd. Radiopharm. 2013, DOI: 10.1002/jlcr.3133)

[3] = test system: Aβ plaques on AD brain section; experiment: Assay 1: displacement of Compound B on human AD brain sections (fluorescence); assay type: binding
Method: Direct Binding of Compounds of this Invention to Human Alzheimer's Disease Brain Sections and/or Displacement of RefA and Compound B Frozen sections with a thickness of […] from the amygdala of donors diagnosed with Braak stage V-VI Alzheimer's Disease (Braak, H.; Braak, E. Acta Neuropathol., 1991, 82, 239-259), were purchased from a commercial provider (Tissue Solutions) and kept at -80° C. until use. Displacement of RefA and Compound B Brain sections were mainly treated as described above. Test compounds were, however, incubated on the section at 250 μM in 50% ethanol for 20 min at room temperature, and then directly incubated with the fluorescent reference compounds RefA and Compound B, each at 1 μM in 50% ethanol for 20 min at room temperature. RefA and Compound B stainings were visualized using the 470 nm and 365 nm excitation filters, respectively. Images were acquired, and tangles and plaques quantified using the NIS-Element software. Only those compounds not directly staining tangles or plaques at the same wavelengths as RefA and Compound B were tested in the displacement assay. Structure of Compound B (prepared by a similar procedure described for […] in WO2010/011964): […]

Structure (SMILES) | inhibition at 2.5 µM (AD brain-enriched PHF) [%] | Direct staining of tau tangles on AD brain sections at 100 μM ([1]; tangles) | Direct staining of tau tangles/Aβ plaques on AD brain sections at 100 μM [1] | Competition on AD brain section Aβ plaques (1 μM Compound B vs 250 μM compound) [3] [%] | further results
Cn1c2c(c3ccc(Nc4ccc(F)c(F)c4)nc31)C(=O)N(CCCN)CC2 [212 Step F] | < 50 |  |  |  | 
Cn1c2ccncc2c2ccc(Nc3ccc(F)c(C#N)c3)nc21 [Example 6] | < 50 | +++ (tangles) |  |  | 
Cn1c2ccncc2c2ccc(Nc3cc(N4CCOCC4)ccc3F)nc21 [Example 10] | < 50 |  | − |  | 
Cn1c2ccncc2c2ccc(Nc3ccc(OC(F)F)nc3)nc21 [Example 11] |  | ++ (tangles) |  |  | Ki (AD brain-enriched PHF): 188 nM
Cn1c2ccncc2c2ccc(Nc3cccc(OC(F)(F)F)c3)nc21 [Example 13] |  |  |  |  | Ki (AD brain-enriched PHF): 169 nM
Cn1c2ccncc2c2ccc(Nc3cccc(F)c3N3CCOCC3)nc21 [Example 14] |  |  |  |  | Ki (AD brain-enriched PHF): 371 nM
Cn1c2ccncc2c2ccc(Nc3c(F)cccc3N3CCOCC3)nc21 [Example 15] | < 50 |  |  |  | 
Cn1c2ccncc2c2ccc(Nc3cc(F)ccc3N3CCOCC3)nc21 [Example 16] | < 50 |  | − |  | 
Cn1c2ccncc2c2ccc(Nc3ccc(C#N)c(F)c3)nc21 [Example 17] | < 50 | +++ (tangles) |  |  | 
Cn1c2ccncc2c2ccc(Nc3cccc(OCCF)n3)nc21 [Example 44] |  | ++ (tangles) |  | −21 | Competition on AD brain section tau tangles (1 μM RefA vs. 250 μM compound) [2]: 88%; Selectivity (tau/Abeta) [2]: >88 fold
Cn1c2ccncc2c2ccc(Nc3cncc(OCCF)c3)nc21 [Example 59] |  | +++ (tangles) |  | −9 | Competition on AD brain section tau tangles (1 μM RefA vs. 250 μM compound) [2]: 93%.; Selectivity (tau/Abeta) [2]: >93 fold
Cn1c2ccncc2c2ccc(Nc3cncc(OCCOCCF)c3)nc21 [Example 65] |  | ++ (tangles) |  | 35 | 
Cn1c2ccncc2c2ccc(Nc3cccc(OCCOCCF)c3)nc21 [Example 95] |  | ++ (tangles) |  | 59 | 
Cn1c2ccncc2c2ccc(Nc3cccc(OCCOCCOCCF)c3)nc21 [Example 96] |  | ++ (tangles) |  | 18 | 
Cn1c2ccncc2c2ccc(N3CCOC[C@H]3CF)nc21 [Example 150] |  |  |  | 3 | Direct staining of tau tangles on AD brain sections (footnote a: at 250 μM) ([1]; 250 μM compound, tangles): + (tangles)^a; Competition on AD brain section tau tangles (1 μM RefA vs. 250 μM compound) [2]: 18%
CN1CCc2c(c3ccc(Nc4ccc5c(c4)OCO5)nc3n2C)C1=O [Example 170] | < 50 |  | − |  | Competition on AD brain section tau tangles (1 μM RefA vs. 250 μM compound) [2]: 20%
COc1cc(Nc2ccc3c4c(n(C)c3n2)CCN(C)C4=O)ccc1C [Example 171] | < 50 |  | − |  | 
CN1CCc2c(c3ccc(Nc4ccc5ncn(C)c5c4)nc3n2C)C1=O [Example 172] | < 50 |  | − |  | Competition on AD brain section tau tangles (1 μM RefA vs. 250 μM compound) [2]: 16%
Cn1c2c(c3ccc(Nc4ccc(F)c(F)c4)nc31)C(=O)NCC2 [Example 174] | < 50 |  | − |  | 
